Measurements reported in US20260200896A1, “INHIBITORS OF SPNS2 AND USES THEREOF” (NEW YORK UNIVERSITY, priority 2022, published 2026).

Tested on: Female C57BL/6 mice
Experiment: Animal study: lymphocytes and red blood cells in blood enumerated by hematology analyzer 24 hours after oral gavage
Assay type: in vivo
Conditions: oral gavage 400 micromol/kg, 24 hours later, vs vehicle (PEG300)
Description: Female C57BL/6 mice 6-8 weeks old were treated by oral gavage with vehicle (PEG300) or compound 510 at 400 micromol/kg. 24 hours later, lymphocytes and red blood cells (RBC) in blood were enumerated by hematology analyzer (XT-2000i). The results are depicted in FIG. 1.

## CC(C)C(=O)N(CCO)[C@H]1CCN(c2nc3cc(F)c(F)cc3nc2-c2cccc(OC(F)(F)F)c2)C1 [Compound 510, (S)—N-(1-(6,7-difluoro-3-(3-(trifluoromethoxy)-phenyl)quinoxalin-2-yl)pyrrolidin-3-yl)-N-(2-hydroxyethyl)isobutyramide]
FIG. 1A
  number of lymphocytes in blood: substantially reduced
FIG. 1B
  number of red blood cells (RBC) in blood: remained unchanged
